Measurements reported in US20140315933A1, “CHEMICAL COMPOUNDS” (Pfizer Limited, priority 2013, published 2014).
Where a name gives a salt, the structure may show the parent alone.

Target: T1, URAT-1 transporter (Homo sapiens, UniProt Q96S37)
T1 construct: expressed in transfected cells
Assay: URAT-1 inhibitor activity: [14C]-uric acid uptake into CHO-URAT1(L)GFP#8 (CHO#8) cells, scintillation proximity
Assay type: cell-based
Conditions: not given
How it was run: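 CHO cells stably expressing human URAT1 long isoform C-terminally fused to eGFP, preincubated 1 hour in chloride-containing buffer, then 15 minutes with compound (0–10 μM, 0.25% DMSO) in chloride-free buffer pH 7.4. [14C]-uric acid at 30 nM final added; uptake read by scintillation proximity after three hours at room temperature, dark.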

Compared with `N#Cc1cc(S(=O)(=O)Nc2ncns2)ccc1Oc1cc(C(F)(F)F)ccc1Cl` [Example 45, 4-[2-chloro-5-(trifluoromethyl)phenoxy]-3-cyano-N-(1,2,4-thiadiazol-5-yl)benzenesulfonamide], `N#Cc1cc(S(=O)(=O)Nc2ncns2)ccc1Oc1cc(C(F)(F)F)ccc1F` [Example 44, 3-cyano-4-[2-fluoro-5-(trifluoromethyl)phenoxy]-N-(1,2,4-thiadiazol-5-yl)benzenesulfonamide] is 4.2-fold higher in IC50: 1020 nM for the first, 4330 nM for the second.

Compared with `N#Cc1cc(S(=O)(=O)Nc2ncc(F)s2)ccc1Oc1c(F)cccc1F` [Example 94, 3-cyano-4-(2,6-difluorophenoxy)-N-(5-fluoro-1,3-thiazol-2-yl)benzenesulfonamide], `N#Cc1cc(S(=O)(=O)Nc2ncc(F)s2)ccc1Oc1ccccc1F` [Example 104, 3-cyano-4-(2-fluorophenoxy)-N-(5-fluoro-1,3-thiazol-2-yl)benzenesulfonamide] is 4.2-fold higher in IC50: 621 nM for the first, 2620 nM for the second. The first is the more potent here.

Going from `N#Cc1cc(S(=O)(=O)Nc2ncns2)ccc1Oc1cc(Cl)ccc1OC(F)F` [Example 31, 4-[5-chloro-2-(difluoromethoxy)phenoxy]-3-cyano-N-(1,2,4-thiadiazol-5-yl)benzenesulfonamide] to `COc1cc(Cl)ccc1Oc1ccc(S(=O)(=O)Nc2ncns2)cc1C#N` [compound 267], the IC50 falls from 2220 nM to 930 nM (2.4-fold).

`COc1ccccc1Oc1ccc(S(=O)(=O)Nc2ncns2)cc1C#N` [compound 271] and `CCOc1ccccc1Oc1ccc(S(=O)(=O)Nc2ncns2)cc1C#N` [compound 281] are within 1.5-fold of each other in IC50: 4540 nM for the first, 3250 nM for the second.

First: N#Cc1ccc(Oc2ccc(S(=O)(=O)Nc3ncc(Cl)s3)cc2C#N)cc1Cl [Example 247, 4-(3-chloro-4-cyanophenoxy)-N-(5-chloro-1,3-thiazol-2-yl)-3-cyanobenzenesulfonamide]
Second: N#Cc1cc(S(=O)(=O)Nc2ncc(Cl)s2)ccc1Oc1cc(Cl)ccc1Cl [Example 86, N-(5-chloro-1,3-thiazol-2-yl)-3-cyano-4-(2,5-dichlorophenoxy)benzenesulfonamide]
The IC50 of the first is 1.5-fold lower: 450 nM for the first, 680 nM for the second. The first is the more potent here.

Compared with `N#Cc1cc(S(=O)(=O)Nc2ncns2)ccc1Oc1cccc(Cl)c1` [compound 291], `N#Cc1cc(S(=O)(=O)Nc2ncns2)ccc1Oc1ccc(Cl)cc1F` [Example 52, 4-(4-chloro-2-fluorophenoxy)-3-cyano-N-(1,2,4-thiadiazol-5-yl)benzenesulfonamide] is 1.7-fold lower in IC50: 1130 nM for the first, 650 nM for the second.

First: CC(C)Oc1ncc(Oc2ccc(S(=O)(=O)Nc3nncs3)cc2C#N)cc1Cl [Example 333]
Second: COc1ncc(Oc2ccc(S(=O)(=O)Nc3nncs3)cc2C#N)cc1Cl [Example 338]
The IC50 of the first is 9.5-fold higher: 7540 nM for the first, 797 nM for the second.

Going from `N#Cc1cc(S(=O)(=O)Nc2nccs2)ccc1Oc1ccc(Br)c(F)c1` [compound 168] to `N#Cc1cc(S(=O)(=O)Nc2nccs2)ccc1Oc1ccc(N)cc1` [compound 184], the IC50 rises from 161 nM to greater than 6240 nM.

Going from `N#Cc1cc(S(=O)(=O)Nc2ncc(F)s2)ccc1Oc1ccc(F)c(F)c1F` [Example 121, 3-cyano-N-(5-fluoro-1,3-thiazol-2-yl)-4-(2,3,4-trifluorophenoxy)benzenesulfonamide] to `Cc1cc(F)ccc1Oc1ccc(S(=O)(=O)Nc2ncc(F)s2)cc1C#N` [Example 93, 3-cyano-4-(4-fluoro-2-methylphenoxy)-N-(5-fluoro-1,3-thiazol-2-yl)benzenesulfonamide], the IC50 rises from 1040 nM to greater than 1610 nM. The first is the more potent here.

`COc1cc(OC)c(Oc2ccc(S(=O)(=O)Nc3ncc(Cl)s3)cc2C#N)c(OC)c1` [Example 90, N-(5-chloro-1,3-thiazol-2-yl)-3-cyano-4-(2,4,6-trimethoxyphenoxy)benzenesulfonamide] and `Cc1cc(Cl)ccc1Oc1ccc(S(=O)(=O)Nc2ncc(F)s2)cc1C#N` [Example 117, 4-(4-chloro-2-methylphenoxy)-3-cyano-N-(5-fluoro-1,3-thiazol-2-yl)benzenesulfonamide] are within 1.5-fold of each other in IC50: 1670 nM for the first, 1440 nM for the second.

Compared with `Cc1ccc(F)cc1Oc1ccc(S(=O)(=O)Nc2ncc(F)s2)cc1C#N` [Example 105, 3-cyano-4-(5-fluoro-2-methylphenoxy)-N-(5-fluoro-1,3-thiazol-2-yl)benzenesulfonamide], `CCc1cc(F)ccc1Oc1ccc(S(=O)(=O)Nc2ncc(F)s2)cc1C#N` [Example 131, 3-cyano-4-(2-ethyl-4-fluorophenoxy)-N-(5-fluoro-1,3-thiazol-2-yl)benzenesulfonamide] is lower in IC50: greater than 1790 nM for the first, 297 nM for the second.

Compared with `N#Cc1ccc(Oc2ccc(S(=O)(=O)Nc3nncs3)cc2Cl)cc1Cl` [compound 203], `N#Cc1cc(Oc2ccc(S(=O)(=O)Nc3nncs3)cc2Cl)ccc1F` [compound 216] is 3.7-fold higher in IC50: 387 nM for the first, 1420 nM for the second. The first is the more potent here.

`O=S(=O)(Nc1cscn1)c1ccc(Oc2ccc(F)c(F)c2)cc1F` [compound 224] and `O=S(=O)(Nc1cscn1)c1cc(F)c(Oc2ccc(F)c(F)c2)cc1F` [compound 238] cannot be ordered by IC50: greater than 10000 nM for the first, greater than 10000 nM for the second.

Compared with `COc1ccc(Oc2ccc(S(=O)(=O)Nc3ncns3)cc2C#N)c(Cl)c1` [compound 290], `COc1ccc(C)cc1Oc1ccc(S(=O)(=O)Nc2ncns2)cc1C#N` [compound 284] is 2.3-fold higher in IC50: 1100 nM for the first, 2520 nM for the second. The first is the more potent here.

Going from `CCSc1ncccc1Oc1cc(F)c(S(=O)(=O)Nc2nncs2)cc1Cl` [compound 304] to `Cc1ccnc(C)c1Oc1cc(F)c(S(=O)(=O)Nc2nncs2)cc1Cl` [compound 308], the IC50 rises from 1010 nM to greater than 10000 nM. The first is the more potent here.

Compared with `CCSc1ncccc1Oc1ccc(S(=O)(=O)Nc2ncns2)cc1C#N` [compound 255, trifluoroacetic acid salt], `COc1c(Cl)cccc1Oc1ccc(S(=O)(=O)Nc2ncns2)cc1C#N` [compound 283] is higher in IC50: 684 nM for the first, greater than 8570 nM for the second.

Compared with `N#Cc1cc(S(=O)(=O)Nc2ncns2)ccc1Oc1ccc(Cl)cc1OC(F)(F)F` [Example 32, 4-[4-chloro-2-(trifluoromethoxy)phenoxy]-3-cyano-N-(1,2,4-thiadiazol-5-yl)benzenesulfonamide diethylamine salt], `COc1ccc(C(F)(F)F)cc1Oc1ccc(S(=O)(=O)Nc2ncns2)cc1C#N` [Example 29, 3-cyano-4-[2-methoxy-5-(trifluoromethyl)phenoxy]-N-(1,2,4-thiadiazol-5-yl)benzenesulfonamide diethylamine salt] is higher in IC50: 986 nM for the first, greater than 6080 nM for the second. The first is the more potent here.

Compared with `N#Cc1cc(S(=O)(=O)Nc2nncs2)ccc1Oc1ccc(F)c(F)c1` [compound 201], `O=S(=O)(Nc1nncs1)c1cc(F)c(Oc2ccc(F)c(F)c2)cc1F` [compound 209] is higher in IC50: 651 nM for the first, greater than 7250 nM for the second.

First: O=S(=O)(Nc1nccs1)c1ccc(Oc2ncncc2Br)c(F)c1 [Example 83, 4-[(5-bromopyrimidin-4-yl)oxy]-3-fluoro-N-(1,3-thiazol-2-yl)benzenesulfonamide]
Second: N#Cc1cc(S(=O)(=O)Nc2nccs2)ccc1Oc1ccc(C(F)(F)F)cc1Br [compound 166]
The IC50 of the first is 2.4-fold lower: 1140 nM for the first, 2680 nM for the second. The first is the more potent here.

`CC(C)c1cccc(Oc2cc(F)c(S(=O)(=O)Nc3ncc(F)s3)cc2F)c1` [Example 68, 2,5-difluoro-N-(5-fluoro-1,3-thiazol-2-yl)-4-[3-(propan-2-yl)phenoxy]benzenesulfonamide] and `N#Cc1cc(Oc2cc(F)c(S(=O)(=O)Nc3cscn3)cc2F)ccc1F` [compound 221] cannot be ordered by IC50: greater than 8470 nM for the first, greater than 10000 nM for the second.

Going from `COc1ccc(C#N)cc1Oc1cc(F)c(S(=O)(=O)Nc2nncs2)cc1Cl` [compound 309] to `COc1cc(Cl)cc(Cl)c1Oc1cc(F)c(S(=O)(=O)Nc2nncs2)cc1Cl` [Example 157, 5-chloro-4-(2,4-dichloro-6-methoxyphenoxy)-2-fluoro-N-(1,3,4-thiadiazol-2-yl)benzenesulfonamide diethylamine salt], the IC50 falls from greater than 10000 nM to 2880 nM.

First: N#Cc1ccc(Oc2cc(F)c(S(=O)(=O)Nc3ncns3)cc2F)cc1Cl [compound 208, 4-(3-chloro-4-cyanophenoxy)-2,5-difluoro-N-(1,2,4-thiadiazol-5-yl)benzenesulfonamide]
Second: N#Cc1ccc(Oc2cc(F)c(S(=O)(=O)Nc3cscn3)cc2Cl)cc1Cl [compound 239]
The IC50 of the first is lower: 1790 nM for the first, greater than 10000 nM for the second.

Going from `Cc1ccc(Oc2ccc(S(=O)(=O)Nc3ncc(F)s3)cc2C#N)c(Cl)c1` [Example 124, 4-(2-chloro-4-methylphenoxy)-3-cyano-N-(5-fluoro-1,3-thiazol-2-yl)benzenesulfonamide] to `CC(C)c1ccccc1Oc1ccc(S(=O)(=O)Nc2ncc(F)s2)cc1C#N` [Example 97, 3-cyano-N-(5-fluoro-1,3-thiazol-2-yl)-4-[2-(propan-2-yl)phenoxy]benzenesulfonamide], the IC50 falls from greater than 6360 nM to 1170 nM.

`O=S(=O)(Nc1ncc(F)s1)c1ccc(Oc2ccc(Cl)cc2C(F)(F)F)c(F)c1` [Example 61, 4-[4-chloro-2-(trifluoromethyl)phenoxy]-3-fluoro-N-(5-fluoro-1,3-thiazol-2-yl)benzenesulfonamide] and `N#Cc1cc(S(=O)(=O)Nc2ncc(Cl)s2)ccc1Oc1ccc(C(F)(F)F)cc1` [Example 88, N-(5-chloro-1,3-thiazol-2-yl)-3-cyano-4-[4-(trifluoromethyl)phenoxy]benzenesulfonamide] cannot be ordered by IC50: greater than 10000 nM for the first, greater than 6720 nM for the second.

First: COc1cc(F)cc(Oc2ccc(S(=O)(=O)Nc3ncns3)cc2C#N)c1 [compound 289]
Second: N#Cc1cc(S(=O)(=O)Nc2ncns2)ccc1Oc1ccc(F)cc1 [compound 294]
The IC50 of the first is 1.9-fold lower: 479 nM for the first, 888 nM for the second.

First: COc1c(Oc2ccc(S(=O)(=O)Nc3ncns3)cc2C#N)ccc(F)c1C [compound 266]
Second: CCOc1cc(C)ccc1Oc1ccc(S(=O)(=O)Nc2ncns2)cc1C#N [compound 259]
The IC50 of the first is 2-fold lower: 1570 nM for the first, 3130 nM for the second. The first is the more potent here.

Compared with `N#Cc1cc(S(=O)(=O)Nc2ncns2)ccc1Oc1ccccc1C(F)(F)F` [Example 35, 3-cyano-4-(2-(trifluoromethyl)phenoxy)-N-(1,2,4-thiadiazol-5-yl)benzenesulfonamide], `Cc1nocc1NS(=O)(=O)c1ccc(Oc2ccc(C#N)c(Cl)c2)c(C#N)c1` [Example 76, 4-(3-chloro-4-cyanophenoxy)-3-cyano-N-(3-methyl-1,2-oxazol-4-yl)benzenesulfonamide] is 46-fold lower in IC50: 4320 nM for the first, 93 nM for the second. The second is the more potent here.

Same assay, conditions: inhibition of [14C]-uric acid (30 nM) uptake into CHO#8 cells; compound 0 to 10 μM; 4 parameter logistic fit

With “3-chloro-4-(4-chlorophenoxy)-N-(1,2,4-thiadiazol-5-yl)benzenesulfonamide diethylamine salt [Example 62]” the IC50 was 722 nM.
